Laboratory results reported in PMC12757481, “The dihydropyridine LA1011 modulates multiple Hsp90—co-chaperone interactions relevant to Alzheimer’s disease” (Cell Stress & Chaperones, 2025).
Read-outs that look alike come from different tables or passages of the source.

Assays:
Hsp90 [1] = molecular target: T1, Hsp90 (Saccharomyces cerevisiae, UniProt P02829); assay: Lactate-dehydrogenase and pyruvate-kinase-linked Hsp90 ATPase assay; assay type: biochemical, yeast; details: for effect of LA1011 on the co-chaperone directed regulation of Hsp90 ATPase activity: 2 μM Hsp90, 240 μM LA1011, co-chaperone 0.25 to 30 μM, normalized data compared with control lacking LA1011; for effect on Hsp90 ATPase activity: 2 μM Hsp90
T1 construct: made in house
T1 sequence (P02829 whole entry): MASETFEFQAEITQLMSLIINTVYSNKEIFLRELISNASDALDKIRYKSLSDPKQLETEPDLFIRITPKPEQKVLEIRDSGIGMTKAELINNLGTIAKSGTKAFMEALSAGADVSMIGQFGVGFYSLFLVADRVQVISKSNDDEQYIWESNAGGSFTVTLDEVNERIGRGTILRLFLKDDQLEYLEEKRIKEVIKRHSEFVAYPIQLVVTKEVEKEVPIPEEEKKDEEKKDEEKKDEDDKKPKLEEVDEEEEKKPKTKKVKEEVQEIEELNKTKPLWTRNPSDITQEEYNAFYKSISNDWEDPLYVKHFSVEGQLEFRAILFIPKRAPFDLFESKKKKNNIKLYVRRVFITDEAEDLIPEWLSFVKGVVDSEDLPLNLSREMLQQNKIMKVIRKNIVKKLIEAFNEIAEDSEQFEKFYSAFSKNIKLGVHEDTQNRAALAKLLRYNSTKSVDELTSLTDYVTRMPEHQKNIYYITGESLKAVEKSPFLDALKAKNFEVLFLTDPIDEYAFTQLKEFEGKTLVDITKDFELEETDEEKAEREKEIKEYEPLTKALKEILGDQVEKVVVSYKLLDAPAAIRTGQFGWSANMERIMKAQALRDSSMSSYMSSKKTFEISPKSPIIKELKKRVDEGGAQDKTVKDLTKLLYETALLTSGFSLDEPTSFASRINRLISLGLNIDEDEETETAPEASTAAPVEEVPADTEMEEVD
Procedure: ATPase assays using 2 μM Hsp90 were conducted as previously described using the lactate-dehydrogenase and pyruvate-kinase-linked assay.[12] Briefly, 240 μM of LA1011 was used in assays as required. Co-chaperones were added to Hsp90 and Hsp90-LA1011 complex at a variety of concentrations ranging from 0.25 to 30 μM. Assays utilizing LA1011 were normalized by recalculating the activity for all data points so that the data points were converted to a percentage of the activity relative to the first data point, which lacked any addition of co-chaperone. The first data point was therefore 100% max Hsp90 activity. All assays were conducted at least in triplicate.
To assess the effect of LA1011 on the mechanistic action of co-chaperones, we used the lactate-dehydrogenase and pyruvate-kinase-linked Hsp90 ATPase assay. We first assessed the effect of each co-chaperone on Hsp90 ATPase activity and then compared its effect on a Hsp90-LA1011 complex.

Hsp90-AMPPNP = molecular target: T2, Hsp90-AMPPNP (Saccharomyces cerevisiae, UniProt P02829); assay: ITC, LA1011 binding to Hsp90-AMPPNP; design: species or system yeast; details: 30 μM Hsp90, 5 mM AMPPNP
T2 construct: made in house
T2 sequence (P02829 whole entry): as above
Procedure: (§1) The heat of interaction was measured on an ITC200 microcalorimeter (Microcal) under the same buffer conditions (20 mM Tris, pH 7.5, containing 5 mM NaCl), except for experiments using PP5, where we omitted EDTA and used 1 μM MnCl2. In experiments using nucleotide, we used 5 mM AMPPNP and 6 mM MgCl2. For experiments using Aha1 with AMPPNP the buffer contained 100 mM NaCl. Similarly, Sgt1 experiments also included 100 mM NaCl in the buffer. […] Heats of dilution were determined by diluting the injectant into the buffer. Data were fitted using a curve-fitting algorithm (Microcal Origin) either as a one-site binding event or as two independent binding sites as required.
(§2) To circumvent this limitation, we can alternatively fit the two sites as equal thermodynamic events, and the Kd value or values(s) returned then act as an indicator for changes in the overall affinity for LA1011 binding. […] Thus, our overall approach is to use a stoichiometry of 1:1 that represents the binding of two LA1011 molecules (because there are two binding sites) per Hsp90 dimer, except where we are confident that the stoichiometry is 2:1 (Hsp90 dimer and one LA1011 molecule). […] Thus, prior to choosing the ITC fitting parameters, we first consider the availability of both LA1011 binding sites for complexes of Hsp90 with its co-chaperone partner. […]

APPxPS1 AD mouse model = test system: APPxPS1 AD mouse model; design: method as in PMID 27163800; details: APPxPS1 mice, versus untreated mice; cited from earlier work
Hsp90-FKBP52 = molecular target: T3, Hsp90-FKBP52 (Saccharomyces cerevisiae, UniProt P02829); assay: ITC, LA1011 binding to Hsp90-FKBP52 complex; design: species or system yeast; details: 30 μM Hsp90, 60 μM FKBP52, 2:1 fit
T3 construct: made in house
Procedure: as §1
(§3) Thus, our overall approach is to use a stoichiometry of 1:1 that represents the binding of two LA1011 molecules (because there are two binding sites) per Hsp90 dimer, except where we are confident that the stoichiometry is 2:1 (Hsp90 dimer and one LA1011 molecule).

Hsp90-Sgt1 = molecular target: T4, Hsp90-Sgt1 (Saccharomyces cerevisiae, UniProt P02829); assay: ITC, LA1011 binding to Hsp90-Sgt1 complex; design: species or system yeast; details: 30 μM Hsp90, 60 μM Sgt1, 100 mM NaCl, 2:1 fit
T4 construct: made in house
Procedure: as §1, §3

Hsp90-Aha1 = molecular target: T5, Hsp90-Aha1 (Saccharomyces cerevisiae, UniProt P02829); assay: ITC, LA1011 binding to nucleotide-free Hsp90-yeast Aha1 complex; details: 20 μM Hsp90, 40 μM yAha1, nucleotide-free
T5 construct: made in house
Procedure: as §1, §2

Hsp90 [2] = molecular target: T1, Hsp90; assay: ITC, LA1011 binding to nucleotide-free Hsp90; design: species or system yeast; details: ITC 30 °C, 2 mM LA1011 injected into 30 μM Hsp90
Procedure: as §1, §2

Hsp90-CHIP = molecular target: T6, Hsp90-CHIP (Saccharomyces cerevisiae, UniProt P02829); assay: ITC, LA1011 binding to Hsp90-mouse CHIP complex; design: species or system yeast; details: 20 μM Hsp90, 60 μM CHIP
T6 construct: made in house
Procedure: as §1, §2

Hsp90 [3] = molecular target: Hsp90; design: method as in PMID 29930942; details: previously measured; cited from earlier work
Hsp90-FKBP51 = molecular target: T7, Hsp90-FKBP51 (Saccharomyces cerevisiae, UniProt P02829); assay: ITC, LA1011 binding to Hsp90-FKBP51 complex; design: species or system yeast; details: 30 μM Hsp90, 60 μM FKBP51, 2:1 fit
T7 construct: made in house
Procedure: as §1, §3

Hsp90-p23-PNP = molecular target: T8, Hsp90-p23-PNP (Saccharomyces cerevisiae, UniProt P02829); assay: ITC, LA1011 binding to AMPPNP-Hsp90-p23 complex; design: species or system yeast; details: 30 μM Hsp90, 200 μM p23, 5 mM Mg-PNP
T8 construct: made in house
T8 sequence (P02829 whole entry): as above
T8 sequence (P28707 whole entry partner): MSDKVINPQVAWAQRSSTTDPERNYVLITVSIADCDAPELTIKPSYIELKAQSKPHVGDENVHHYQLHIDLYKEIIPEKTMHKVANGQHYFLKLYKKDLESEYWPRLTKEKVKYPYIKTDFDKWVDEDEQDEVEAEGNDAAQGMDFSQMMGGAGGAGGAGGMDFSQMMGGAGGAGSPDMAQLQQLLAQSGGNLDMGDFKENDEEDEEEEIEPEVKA
Procedure: as §1, §2

Hsp90-CDC37 = molecular target: T9, Hsp90-CDC37 (Saccharomyces cerevisiae, UniProt P02829); assay: ITC, LA1011 binding to Hsp90-CDC37 complex; design: species or system yeast
T9 construct: made in house
Procedure: as §1, §3

Hsp90-HOP = Hsp90-HOP (Saccharomyces cerevisiae, UniProt P02829); details: ITC, 20 μM Hsp90, 40 μM HOP
Sequence of Hsp90-HOP (P02829 whole entry): as the sequence (P02829 whole entry) above
Sequence of Hsp90-HOP (P31948 whole entry partner): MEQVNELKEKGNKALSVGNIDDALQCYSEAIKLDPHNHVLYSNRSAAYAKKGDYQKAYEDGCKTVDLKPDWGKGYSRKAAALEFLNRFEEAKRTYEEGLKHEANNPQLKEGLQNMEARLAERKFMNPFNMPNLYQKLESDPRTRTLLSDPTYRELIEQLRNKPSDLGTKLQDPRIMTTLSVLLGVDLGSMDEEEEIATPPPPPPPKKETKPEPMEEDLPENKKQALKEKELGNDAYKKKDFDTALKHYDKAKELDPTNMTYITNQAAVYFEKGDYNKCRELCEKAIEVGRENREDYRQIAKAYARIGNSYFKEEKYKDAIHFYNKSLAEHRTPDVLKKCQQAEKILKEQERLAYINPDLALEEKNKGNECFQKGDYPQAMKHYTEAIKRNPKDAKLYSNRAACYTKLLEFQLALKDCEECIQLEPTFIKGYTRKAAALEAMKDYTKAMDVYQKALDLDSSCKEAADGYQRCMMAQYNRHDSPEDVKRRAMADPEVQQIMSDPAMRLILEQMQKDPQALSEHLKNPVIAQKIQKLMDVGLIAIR
Procedure: as §1, §3

Hsp90-LA1011-PNP = molecular target: T10, Hsp90-LA1011-PNP (Saccharomyces cerevisiae, UniProt P02829); assay: ITC, co-chaperone binding to Hsp90-AMPPNP-LA1011 complex; design: species or system yeast; details: 5 mM AMPPNP, 2 mM LA1011, for Aha1 the Hsp90-LA1011-PNP was the injectant
T10 construct: made in house
T10 sequence (P02829 whole entry): as the sequence (P02829 whole entry) above
Procedure: (§4) The heat of interaction was measured on an ITC200 microcalorimeter (Microcal) under the same buffer conditions (20 mM Tris, pH 7.5, containing 5 mM NaCl), except for experiments using PP5, where we omitted EDTA and used 1 μM MnCl2. In experiments using nucleotide, we used 5 mM AMPPNP and 6 mM MgCl2. For experiments using Aha1 with AMPPNP the buffer contained 100 mM NaCl. Similarly, Sgt1 experiments also included 100 mM NaCl in the buffer. […] To assess co-chaperone binding to Hsp90 and Hsp90-LA1011 complex, we generally injected aliquots of co-chaperone at concentrations ranging from 200 to 400 μM into the microcell containing the Hsp90 or Hsp90-LA1011 complex at concentrations ranging from 20 to 30 μM of Hsp90 or Hsp90 in complex with 2 mM LA1011 at 30 °C. Heats of dilution were determined by diluting the injectant into the buffer. Data were fitted using a curve-fitting algorithm (Microcal Origin) either as a one-site binding event or as two independent binding sites as required.

Hsp90-PNP = molecular target: T11, Hsp90-PNP (Saccharomyces cerevisiae, UniProt P02829); assay: ITC, co-chaperone binding to Hsp90-AMPPNP; design: species or system yeast; details: 5 mM AMPPNP, no LA1011, for Aha1 the Hsp90-PNP was the injectant
T11 construct: made in house
Procedure: as §4

Hsp90-LA1011 = molecular target: T12, Hsp90-LA1011 (Saccharomyces cerevisiae, UniProt P02829); assay: ITC, co-chaperone binding to Hsp90-LA1011 complex; design: species or system yeast
T12 construct: made in house
T12 sequence (P02829 whole entry): as above
Procedure: as §4

Hsp90 [4] = molecular target: T1, Hsp90; assay: ITC, co-chaperone binding to Hsp90; design: species or system yeast
Procedure: as §4

[5] = ITC 30 °C, Hsp90 in complex with 2 mM LA1011, one-site fit, read-out: Kd
[6] = ITC 30 °C, co-chaperone and Hsp90 without LA1011, one-site fit, read-out: Kd

Question: Which “effect of LA1011 on the co-chaperone directed regulation of Hsp90 ATPase activity” value (“effect of LA1011” for short) (Hsp90 [1]) does the source give for Sti1: the yeast homolog of human HOP here?
Answer: unaffected by the presence of LA1011

Question: What does the source list for COC(=O)C1=C(CCN(C)C)N(C)C(CCN(C)C)=C(C(=O)OC)C1c1ccc(C(F)(F)F)cc1.Cl.Cl [LA1011, dimethyl 4-(4-Trifluoro-methyl-phenyl)-2,6-bis(2-dimethylamino-ethyl)-1-methyl-1-4 dihydropyridine-3-5-dicarboxylate dihydrochloride]?
Answer: Kd (Hsp90-AMPPNP; 1:1 fit, read-out: Kd (1:1)): 58.8 ± 24.2 µM; Kd (Hsp90-AMPPNP; 2:1 fit, read-out: Kd (2:1)): 73 ± 3.1 µM; amyloid-beta (Aβ) plaques (APPxPS1 AD mouse model): decreases; dendritic spine density (APPxPS1 AD mouse model): increase in the dendritic spine density; heat-shock-response (APPxPS1 AD mouse model): co-induction of the heat-shock-response; neurofibrillary tangles (APPxPS1 AD mouse model): decreases in neurofibrillary tangles; neuron number (APPxPS1 AD mouse model): increase in neuron number; Kd (Hsp90-FKBP52): 56.2 ± 5.8 µM; Kd (Hsp90-Sgt1): 8.2 ± 1 µM; Kd (Hsp90-Aha1; 1:1 fit, read-out: Kd (1:1)): 118 ± 8 µM; Kd (Hsp90-Aha1; 2:1 fit, read-out: Kd (2:1)): 53.2 ± 5.5 µM; effect on Hsp90 ATPase activity (Hsp90 [1]): activators of Hsp90 ATPase activity; Kd (Hsp90 [2]; 1:1 stoichiometric fit, read-out: Kd (1:1)): 19.8 ± 2.2 µM; Kd (Hsp90 [2]; 2:1 (Hsp90:LA1011) stoichiometric fit, read-out: Kd (2:1)): 28.9 ± 1.7 µM; Kd (Hsp90-CHIP; 1:1 fit, read-out: Kd (1:1)): 56.2 ± 26.2 µM; Kd (Hsp90-CHIP; 2:1 fit, read-out: Kd (2:1)): 69 ± 2 µM; Kd (Hsp90 [3]): 13.5 µM; Kd (Hsp90-FKBP51): 79.4 ± 33.5 µM; Kd (Hsp90-p23-PNP; 1:1 fit, read-out: Kd (1:1)): 58.8 ± 3.5 µM; Kd (Hsp90-p23-PNP; 2:1 fit, read-out: Kd (2:1)): 73 ± 4.5 µM; Kd (Hsp90-CDC37; 20 μM Hsp90, 40 μM CDC37, 1:1 fit, read-out: Kd (1:1)): 4.2 ± 0.8 µM; Kd (Hsp90-CDC37; 20 μM Hsp90, 40 μM CDC37, 2:1 fit, read-out: Kd (2:1)): 9.5 ± 2.5 µM; Kd (Hsp90-HOP; read-out: Kd (1:1), 1:1 fit): 8.8 ± 1.3 µM; Kd (Hsp90-HOP; read-out: Kd (2:1), 2:1 fit): 8.8 ± 1.3 µM

Question: For “p23: Hsp90 co-chaperone that promotes the closed conformation of Hsp90”, which “effect of LA1011” value (Hsp90 [1]) is on record?
Answer: unaffected by the presence of LA1011

Question: What about the Kd (Hsp90-LA1011-PNP) of the same compound?
Answer: 8.9 µM

Question: What about the Kd (Hsp90-PNP) of the same compound?
Answer: 4200 nM

Question: Which Kd (Hsp90-LA1011; [5]) does the source give for “Hch1: Hsp90 co-chaperone homologous to the N-terminal domain of Aha1” here?
Answer: 11.6 µM

Question: And the Kd (Hsp90 [4]; [6])?
Answer: 6900 nM

Question: With “CDC37: Hsp90 co-chaperone of early complex assembly” as the compound, how does the Kd (Hsp90-LA1011; [5]) read?
Answer: 1.3 µM

Question: What about the Kd (Hsp90 [4]; [6]) of the same compound?
Answer: 1590 nM

Question: And the “effect of LA1011” value (Hsp90 [1])?
Answer: unaffected by the presence of LA1011

Question: With “HOP: Hsp90 co-chaperone found in early complexes of the chaperone cycle” as the compound, how does the Kd (Hsp90-LA1011; [5]) read?
Answer: 0.3 µM

Question: And the Kd (Hsp90 [4]; [6])?
Answer: 430 nM

Question: Which Kd (Hsp90-LA1011; ITC, Hsp90 with 2 mM LA1011, two-site fit, value listed first in Table 2 and figures, read-out: Kd (two-site fit, first value listed)) does the source give for “PP5: full-length PP5, phosphatase co-chaperone of Hsp90” here?
Answer: 9.6 µM

Question: What about the Kd (Hsp90-LA1011; ITC, Hsp90 with 2 mM LA1011, two-site fit, value listed second in Table 2 and figures, read-out: Kd (two-site fit, second value listed)) of the same compound?
Answer: 9.2 µM

Question: What about the Kd (Hsp90 [4]; ITC, Hsp90 without LA1011, two-site fit, value listed first in Table 2 and figures, read-out: Kd (two-site fit, first value listed)) of the same compound?
Answer: 640 nM

Question: What about the Kd (Hsp90 [4]; ITC, Hsp90 without LA1011, two-site fit, value listed second in Table 2 and figures, read-out: Kd (two-site fit, second value listed)) of the same compound?
Answer: 160 nM

Question: Which results are given for “Aha1: yeast Aha1, late-cycle Hsp90 co-chaperone and activator of Hsp90 ATPase activity”?
Answer: Kd (Hsp90-LA1011; [5]): 3.3 ± 0.4 µM; Kd (Hsp90 [4]; [6]): 2400 ± 200 nM; effect on Hsp90 ATPase activity (Hsp90 [1]): activators of Hsp90 ATPase activity; effect of LA1011 on the co-chaperone directed regulation of Hsp90 ATPase activity (Hsp90 [1]): significantly less Aha1 is required to fully activate Hsp90; Kd (Hsp90-LA1011-PNP): 1.8 µM; Kd (Hsp90-PNP): 1200 nM
